Measured values taken from patent publication US10662146B2, “Prodrugs of fencamfamine” (Praxis Bioresearch, LLC, priority 2015, dated 2020).
“Also recorded” adds a separate entry of the source. Where two headings read alike, the source gives them in different places.

Legend:
[1] = Single dose intravenous PK study in male Sprague Dawley rats (plasma by LC-MS/MS); format: in vivo; settings: for Cmax / AUC(0-inf) / AUC(0-t) / clearance / MRT last / half-life / Vd: iv, 2 mg/kg; for Plasma concentration of PRX-002 (−) Isomer: PRX-002 (−) Isomer IV 2 mg/kg b.w.
Method in brief: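 Adult male Sprague Dawley rats (8-10 weeks) received IV bolus prodrug at 2 mg/kg PRX-002-equivalent unless specified, with 10 or 15 mg/kg in some studies; formulations in PEG 400/HPβCD/water (±DMSO), freshly prepared. Retro-orbital K2EDTA plasma sampled over 24 h; fencamfamine quantified by LC-MS/MS, AUC versus unconjugated fencamfamine.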

[2] = tested on: spontaneous locomotor activity; assay: Spontaneous locomotor activity (sLMA), intravenous administration; format: in vivo, Male SD rats; settings: 90 min recording, vs vehicle
Experimental: Male SD rats were intravenously administered with PRX-002(−) (2 mg/kg) and prodrug PRX-P4-003 [(25.8 mg/kg, equivalent to 10 mg/kg of PRX-002 (−)], and vehicle just before sLMA test.
Vehicle was: 10% PEG 400 (v/v)+30% (v/v) of (50% w/v) Hydroxypropyl-ß-cyclodextrin in water+60% (v/v) sterile water for injection (SWFI): 1 ml/kg volume.
PRX-P4-003 solution was: 25.8 mg/ml PRX-P4-003 (25.8 mg/kg: equivalent to 10 mg/ml active drug, i.v. @volume of 1 ml/kg). 42.3 mg PRX-P4-003 was added to vehicle 1.639 ml, vortexed for 30 min under room temperature to get a uniform suspension solution, suspension solution was continuously stirred during dosage.
The PRX-P4-002(−) solution was: 2 mg/ml PRX-P4-002(−) (2 mg/kg, i.v.@volume of 1 ml/kg). 4.5 mg PRX-002(−) was added to 2.25 ml Vehicle, vortexed for 30 min under room temperature to get a clear solution, the solution was continuously stirred during dosage.
Rat was placed at the center of test chamber for the 90 min sLMA video recording. (n=3/group).

## CCCCCCCCCCCCCCCCCC(=O)OCOC(=O)N(CC)C1C2CCC(C2)C1c1ccccc1 (single isomer, unassigned) [PRX-P4-003, N-(Octadecanoyloxymethoxycarbonyl)-(−)-N-ethyl-3-phenylbicyclo[2.2.1]heptan-2-amine]
[1]; PRX-P4-003 IV 2 mg/kg b.w., 0.08 h, mean
  Plasma concentration of PRX-P4-003: 171.96
[1]; PRX-P4-003 IV 2 mg/kg b.w., 0.25 h, mean
  Plasma concentration of PRX-P4-003: 47.94
[1]; PRX-P4-003 IV 2 mg/kg b.w., 0.50 h, mean
  Plasma concentration of PRX-P4-003: 26.73
[1]; PRX-P4-003 IV 2 mg/kg b.w., 1.00 h, mean
  Plasma concentration of PRX-P4-003: 20.03
[1]; PRX-P4-003 IV 2 mg/kg b.w., 2.00 h, mean
  Plasma concentration of PRX-P4-003: 18.29
[1]; PRX-P4-003 IV 2 mg/kg b.w., 4.00 h, mean
  Plasma concentration of PRX-P4-003: 14.23
[1]; PRX-P4-003 IV 2 mg/kg b.w., 6.00 h, mean
  Plasma concentration of PRX-P4-003: 10.72
[1]; PRX-P4-003 IV 2 mg/kg b.w., 24.00 h, mean
  Plasma concentration of PRX-P4-003: 0.00
[1]; PRX-P4-003 IV 2 mg/kg, mean
  AUC% extrap of PRX-P4-003: 32.475 ± 83.3890%
[1]; PRX-P4-003 IV 10 mg/kg b.w., 0.08 h, mean
  Plasma concentration of PRX-P4-003: 199.64
[1]; PRX-P4-003 IV 10 mg/kg b.w., 0.25 h, mean
  Plasma concentration of PRX-P4-003: 27.98
[1]; PRX-P4-003 IV 10 mg/kg b.w., 0.50 h, mean
  Plasma concentration of PRX-P4-003: 8.96
[1]; PRX-P4-003 IV 10 mg/kg b.w., 1.00 h, mean
  Plasma concentration of PRX-P4-003: 0.00
[1]; PRX-P4-003 IV 10 mg/kg b.w., 2.00 h, mean
  Plasma concentration of PRX-P4-003: 0.00
[1]; PRX-P4-003 IV 10 mg/kg b.w., 4.00 h, mean
  Plasma concentration of PRX-P4-003: 0.00
[1]; PRX-P4-003 IV 10 mg/kg b.w., 6.00 h, mean
  Plasma concentration of PRX-P4-003: 0.00
[1]; PRX-P4-003 IV 10 mg/kg b.w., 24.00 h, mean
  Plasma concentration of PRX-P4-003: 0.00
[1]; PRX-P4-003 IV administration (FIG. 2)
  Conversion of pro-drug form to active form PRX-002(−) isomer in plasma: minimal amounts
[1]; PRX-P4-003 IV, even at higher dose of 10 mg/kg (FIG. 3)
  Amount of parent PRX-002 (−) generated: very limited amount
[1]; male, Sprague Dawley, rat, plasma, IV 2 mg/kg [equivalent to PRX-002 (−)], analyte: prodrug in plasma, mean, read-out: IV PK Parameters Cmax, Prodrug
  Cmax: 172 ± 62.6 ng/mL
[1]; male, Sprague Dawley, rat, IV 2 mg/kg [equivalent to PRX-002 (−)], analyte: prodrug in plasma, mean, read-out: IV PK Parameters AUC, Prodrug
  AUC: 133 ± 32.5 ng·h/mL
[1]; male, Sprague Dawley, rat, IV 2 mg/kg [equivalent to PRX-002 (−)], analyte: prodrug in plasma, mean, read-out: IV PK Parameters Tmax, Prodrug
  Tmax: 4.8 min
[1]; male, Sprague-Dawley, rat, plasma, PRX-P4-003 IV 2 mg/kg, mean, read-out: AUCinf of PRX-P4-003
  AUC(0-inf): 216 ± 83.4 ng·h/mL
[1]; male, Sprague-Dawley, rat, plasma, PRX-P4-003 IV 2 mg/kg, mean, read-out: AUClast of PRX-P4-003
  AUC(0-t): 133 ± 32.5 ng·h/mL
[1]; male, Sprague-Dawley, rat, plasma, PRX-P4-003 IV 2 mg/kg, mean, read-out: CL of PRX-P4-003
  clearance: 172 ± 69.3 mL/min/kg
[1]; male, Sprague-Dawley, rat, plasma, PRX-P4-003 IV 2 mg/kg, mean, read-out: Cmax of PRX-P4-003
  Cmax: 172 ± 62.6 ng/mL
[1]; male, Sprague-Dawley, rat, plasma, PRX-P4-003 IV 2 mg/kg, mean, read-out: MRTlast of PRX-P4-003
  MRT last: 1.84 ± 0.713 h
[1]; male, Sprague-Dawley, rat, plasma, PRX-P4-003 IV 2 mg/kg, mean, read-out: T1/2 of PRX-P4-003 (converted)
  half-life: 3.35 ± 2.18 h
[1]; male, Sprague-Dawley, rat, plasma, PRX-P4-003 IV 2 mg/kg, mean, read-out: Vss of PRX-P4-003
  Vd: 42 ± 19.9 L/kg
[1]; male, Sprague-Dawley, rat, plasma, PRX-P4-003 IV 2 mg/kg, mean, read-out: Tmax of PRX-P4-003
  Tmax: 4.8 min
[2]; i.v. 25.8 mg/kg, equivalent to 10 mg/kg of PRX-002 (−)
  Spontaneous locomotor activity (sLMA): total traveling distance and duration: no increase in sLMA; also recorded: practically no change

## CCN[C@@H]1[C@@H]2CC[C@@H](C2)[C@H]1c1ccccc1 [PRX-002 (−) Isomer, (1R,2R,3S,4S)—N-Ethyl-3-phenylbicyclo[2.2.1]heptan-2-amine, reference compound]
[1]; 0.08 h, mean
  Plasma concentration of PRX-002 (−) Isomer: 142.01
[1]; 0.25 h, mean
  Plasma concentration of PRX-002 (−) Isomer: 112.59
[1]; 0.50 h, mean
  Plasma concentration of PRX-002 (−) Isomer: 81.21
[1]; 1.00 h, mean
  Plasma concentration of PRX-002 (−) Isomer: 58.82
[1]; 2.00 h, mean
  Plasma concentration of PRX-002 (−) Isomer: 53.05
[1]; 4.00 h, mean
  Plasma concentration of PRX-002 (−) Isomer: 16.55
[1]; 6.00 h, mean
  Plasma concentration of PRX-002 (−) Isomer: 0.00
[1]; 24.00 h, mean
  Plasma concentration of PRX-002 (−) Isomer: 0.00
[1]; PRX-002 (−) Isomer IV 2 mg/kg, mean
  AUC% extrap of PRX-002 (−) Isomer: 14.056 ± 5.0710%
[1]; male, Sprague Dawley, rat, plasma, PRX-002 (−) Isomer IV 2 mg/kg, mean, read-out: AUCinf of PRX-002 (−) Isomer
  AUC(0-inf): 256 ± 44.3 ng·h/mL
[1]; male, Sprague Dawley, rat, plasma, PRX-002 (−) Isomer IV 2 mg/kg, mean, read-out: AUClast of PRX-002 (−) Isomer
  AUC(0-t): 219 ± 23.9 ng·h/mL
[1]; male, Sprague Dawley, rat, plasma, PRX-002 (−) Isomer IV 2 mg/kg, mean, read-out: CL of PRX-002 (−) Isomer
  clearance: 133 ± 21 mL/min/kg
[1]; male, Sprague Dawley, rat, plasma, PRX-002 (−) Isomer IV 2 mg/kg, mean, read-out: Cmax of PRX-002 (−) Isomer
  Cmax: 143 ± 1.75 ng/mL
[1]; male, Sprague Dawley, rat, plasma, PRX-002 (−) Isomer IV 2 mg/kg, mean, read-out: MRTlast of PRX-002 (−) Isomer
  MRT last: 1.33 ± 0.118 h
[1]; male, Sprague Dawley, rat, plasma, PRX-002 (−) Isomer IV 2 mg/kg, mean, read-out: T1/2 of PRX-002 (−) Isomer (converted)
  half-life: 1.51 ± 0.223 h
[1]; male, Sprague Dawley, rat, plasma, PRX-002 (−) Isomer IV 2 mg/kg, mean, read-out: Vss of PRX-002 (−) Isomer
  Vd: 15.7 ± 0.339 L/kg
[1]; male, Sprague Dawley, rat, plasma, PRX-002 (−) Isomer IV 2 mg/kg, mean, read-out: Tmax of PRX-002 (−) Isomer
  Tmax: 8.22 ± 5.88 min
[2]; i.v. 2 mg/kg
  Spontaneous locomotor activity (sLMA): total traveling distance and duration: significantly increased sLMA
